From ChEMBL document CHEMBL1145623, “Structure-activity relationships of anthranilamide-based factor Xa inhibitors containing piperidinone and pyridinone P4 moieties” (Bioorg Med Chem Lett, 2008)
Values after ≈ are worked out from the molar mass of the structure shown.

Columns and labels:
[1] = Half life in dog at 0.02 to 0.5 mg/kg, po; type: ADME, organism-based, Canis lupus familiaris; design: dose 0.02-0.5 mg/kg, route oral; conditions: in vivo
Canis familiaris [2] = test: Volume of distribution at steady state in dog at 0.02 to 0.5 mg/kg, iv and po; type: ADME, organism-based, Canis lupus familiaris; design: dose 0.02-0.5 mg/kg, route oral; conditions: in vivo
[3] = Bioavailability in dog at 0.02 to 0.5 mg/kg, po; type: ADME, organism-based, Canis lupus familiaris; conditions: in vivo
[4] = Solubility in potassium phosphate buffer at pH 6.5 by thermodynamic equilibrium aqueous solubility assay; type: physicochemical
Canis familiaris [5] = test: Clearance in dog at 0.02 to 0.5 mg/kg, iv and po; type: ADME, organism-based, Canis lupus familiaris; design: dose 0.02-0.5 mg/kg, route oral; conditions: in vivo

| SMILES | half-life [1] [h] | Vdss (Canis familiaris [2]) [L/kg] | bioavailability [3] [%] | solubility thermodynamic [4] [µg/mL] | CL (Canis familiaris [5]) [mL/min/kg] |
| --- | --- | --- | --- | --- | --- |
| COc1cc(Cl)cc(C(=O)Nc2ccc(Cl)cn2)c1NC(=O)c1ccc(N2CCCCC2=O)cc1 | 1.5 | 1.3 | 44 | 19 (≈ 37 µM) | 12 |
| COc1cc(Cl)cc(C(=O)Nc2ccc(Cl)cn2)c1NC(=O)c1ccc(-n2ccccc2=O)nc1 | 1.6 | 0.81 | 74 | – | 5 |
| COc1cc(Cl)cc(C(=O)Nc2ccc(Cl)cn2)c1NC(=O)c1ccc(-n2ccccc2=O)cc1 | 0.7 | 0.62 | 99 | – | 11.2 |
| COc1cc(Cl)cc(C(=O)Nc2ccc(Cl)cn2)c1NC(=O)c1ccc(-n2ccccc2=O)cc1F | 0.7 | 2.6 | 18 | – | 13 |
| COc1ccc(-n2nc(C(N)=O)c3c2C(=O)N(c2ccc(N4CCCCC4=O)cc2)CC3)cc1 [APIXABAN] | 5.8 | 0.2 | – | – | 0.33 |
| CN(C)CCOc1cc(Cl)cc(C(=O)Nc2ccc(Cl)cn2)c1NC(=O)c1ccc(N2CCCCC2=O)cc1 | – | – | – | 912 (≈ 1600 µM) | – |
